The values that follow come from ChEMBL document CHEMBL5727654 (2020).

This test has as its target T1, Signal transducer and activator of transcription 1-alpha/beta (Homo sapiens, UniProt P42224).
T1 sequence (P42224 whole entry): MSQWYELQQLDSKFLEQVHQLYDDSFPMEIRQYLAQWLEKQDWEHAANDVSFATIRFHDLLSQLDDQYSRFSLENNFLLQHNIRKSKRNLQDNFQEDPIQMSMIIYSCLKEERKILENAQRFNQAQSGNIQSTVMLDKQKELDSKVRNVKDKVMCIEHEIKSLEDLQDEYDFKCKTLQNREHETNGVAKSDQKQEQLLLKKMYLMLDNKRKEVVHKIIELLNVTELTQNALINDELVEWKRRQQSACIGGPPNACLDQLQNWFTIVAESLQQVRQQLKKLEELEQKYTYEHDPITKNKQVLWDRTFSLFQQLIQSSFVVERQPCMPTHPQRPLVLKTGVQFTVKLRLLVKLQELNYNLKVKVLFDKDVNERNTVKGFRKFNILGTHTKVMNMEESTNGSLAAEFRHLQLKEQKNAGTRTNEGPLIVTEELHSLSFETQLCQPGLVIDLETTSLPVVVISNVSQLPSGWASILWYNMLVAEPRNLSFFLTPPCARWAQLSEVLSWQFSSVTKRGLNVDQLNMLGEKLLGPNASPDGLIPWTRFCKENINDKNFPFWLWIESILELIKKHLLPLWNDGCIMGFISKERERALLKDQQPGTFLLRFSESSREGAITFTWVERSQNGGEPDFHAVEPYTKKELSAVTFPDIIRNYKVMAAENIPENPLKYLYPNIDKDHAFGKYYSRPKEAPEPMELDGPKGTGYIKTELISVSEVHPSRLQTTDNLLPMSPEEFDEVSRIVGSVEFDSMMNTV
As to the kind of experiment: Bioassay Evaluation: Compound samples (in 3-5 mg quantities) were evaluated in a variety of assays. All compound submissions were fully characterized (1H, 13C, IR, HRMS), satisfied purity criteria (≥95% LC/MC, ELS). Format: single protein.

The term IC50 denotes the concentration at which inhibition is half-maximal. A high value points to weaker potency in that assay.

Regarding `COc1ccc(C2=Nn3c(nnc3-c3[nH]nc4c3CCC4)SC2)cc1`, half-maximal inhibition (IC50) was put at 40.6 µM.
